In patent publication US20210139943A1, “MEDIUM AND PROCESS FOR THE CULTURE AND SELECTIVE ISOLATION OF THE BACTERIUM ENTEROCOCCUS HIRAE” (FONDATION MEDITERRANEE INFECTION, priority 2017, published 2021):

Columns and labels:
[1] = tested on: E. faecium; assay: Determination of sugar: colour change on medium with indicator dye; type: cell-based, Enterococcus faecium; settings: sugar in medium with bromocresol purple indicator dye
From the text: (§1) To detect the consumption of sugar by bacteria, the inventors added to the medium of the present invention an indicator dye whose colour will vary according to the pH of the medium. Indeed, when the bacteria consume sugar, there is an acidification of the medium, which leads to a change in the indicator dye. To determine the most appropriate indicator dyer, the inventors tested several, including the following three: phenol red, bromocresol green and bromocresol purple. Based on concentrations in media already containing one of these indicator dyes, the inventors first chose to test a concentration of 25 mg/L [12] for each of the chosen indicators.
(§2) Once the indicator dye was chosen, the inventors were able to determine which sugar was most suitable for the present invention.
This sugar cannot therefore be used to isolate E. hirae.
(§3) Finally, the last sugar tested was mannitol. […] The inventors therefore chose mannitol as sugar for the formulation of said invention, at a concentration of 10 g/L, a concentration frequently found in culture media.

[2] = tested on: E. hirae; assay: as above; type: cell-based, Enterococcus hirae; settings: sugar in medium with bromocresol purple indicator dye
From the text: as §1, §2, §3

[3] = tested on: E. faecalis; assay: as above; type: cell-based, Enterococcus faecalis; settings: sugar in medium with bromocresol purple indicator dye
From the text: as §1, §2, §3

[4] = Dilution of nalidixic acid in water; type: physicochemical
Experimental: In addition, the concentration of nalidixic acid was reduced from 250 mg/L to no more than 100 mg/L due to its poor dilution in water above 100 mg/L and colistin, a polypeptide antibiotic of the polymyxin family with action on Gram-negative bacteria, was added at a concentration of 25 mg/L to compensate.

[5] = tested on: Enterococcus faecium; parameters: key: Variable refers to the fact that consumption of this sugar by E. faecium is strain dependent; settings: Table 1, literature data; cited from earlier work
[6] = tested on: E. faecalis; assay: Growth on media with different salt concentrations; type: cell-based, Enterococcus faecalis; settings: 60 g/L, 65 g/L, 70 g/L and 75 g/L salt
Experimental: (§4) Since enterococci are resistant to high salt concentrations, in order to eliminate some Gram-positive bacteria other than enterococci and Gram-negative bacteria resistant to the inhibitors mentioned above, different concentrations of salt (sodium chloride) were tested to find the most appropriate one to add to the formulation of the present invention. Four concentrations were tested (60 g/L, 65 g/L, 70 g/L and 75 g/L).

[7] = tested on: E. faecium; assay: Growth on media with different salt concentrations; type: cell-based, Enterococcus faecium; settings: 60 g/L, 65 g/L, 70 g/L and 75 g/L salt
Experimental: as §4

[8] = tested on: E. hirae; assay: Growth on media with different salt concentrations; type: cell-based, Enterococcus hirae
Experimental: as §4

## OC[C@@H](O)[C@@H](O)[C@H](O)[C@H](O)CO [Mannitol, mannitol]
[1]
  Colour change of E. faecium colonies: change in the colour of the medium and the colonies
[2]
  Colour change of E. hirae colonies: remained colourless
[3]
  Colour change of E. faecalis colonies: change in the colour of the medium and the colonies

## CCn1cc(C(=O)O)c(=O)c2ccc(C)nc21 [nalidixic acid]
[4]
  Dilution in water (poor above this concentration): no more than 100 mg/L

## OC[C@H]1O[C@H](OCC2O[C@@H](O)[C@H](O)[C@@H](O)[C@@H]2O)[C@H](O)[C@@H](O)[C@H]1O (stereo partly drawn) [Melibiose, melibiose]
[1]
  Colour change of E. faecium colonies: variable results
[5]
  Sugar consumption by Enterococcus faecium: V

## OC[C@H]1O[C@H](OC[C@H]2O[C@H](O[C@]3(CO)O[C@H](CO)[C@@H](O)[C@@H]3O)[C@H](O)[C@@H](O)[C@@H]2O)[C@H](O)[C@@H](O)[C@H]1O [Raffinose, raffinose]
[1]
  Colour change of E. faecium colonies: no colour change
[3]
  Colour change of E. faecalis colonies: no colour change

## [Cl-].[Na+] [sodium chloride]
[6]
  Growth of E. faecalis: had growth for each of the concentrations tested
[7]
  Growth of E. faecium: had growth for each of the concentrations tested
[8]; 60 g/L, 65 g/L, 70 g/L and 75 g/L salt
  Growth of E. hirae: had growth for each of the concentrations tested
[8]; reading the agars at 24 hours, 60 to 75 g/L salt
  Size of E. hirae colonies: the higher the salt concentrations, the smaller the colonies
